The subject of one assay is A2058. Description: MTT proliferation assay, A2058. The format is cell-based. The following applies: Melanoma, A2058, 120 h of exposure. Here is the method:
(§1) Proliferation Assays. IC50 values were determined for each cell line. Cells were seeded in 96-well plates at an appropriate cell density as determined from growth kinetics analysis and cultured for 5 days in the absence and presence of the test compounds. Cell proliferation was assessed after the addition of 20 μl of 3-4,5 dimethylthiazol-2,5-diphenyl tetrazolium bromide (MTT, 5 mg/ml in PBS, Sigma) for 5 hrs at 37° C. according to manufacturer's instructions. IC50 values were calculated from semi-log plots of % of control proliferation on the y-axis against log dose on the x-axis.
(§2) Anti-proliferative Activity of Isoflavonoid Derivatives. IC50 values were determined for each cell line after 120 h of exposure.
For orientation: Tetrazolium dyes change colour on reduction, which living cells bring about.

For a further assay, the system named is PC3. Description: MTT proliferation assay, PC3. The class given is cell-based. The settings on record: Prostate, PC3, 120 h of exposure. Here is the method: as §1, §2
Another assay deals with A549. Description: MTT proliferation assay, A549. The class given is cell-based. The following applies: NSCLC, A549, 120 h of exposure. Here is the method: as §1, §2
In another assay the test system is SKBR-3. Description: MTT proliferation assay, SKBR-3. The class given is cell-based, human. The following applies: Homo sapiens, SK-BR-3, 120 h, Breast, SKBR-3, 120 h of exposure. Here is the method: The human colorectal adenocarcinoma line HCT-116 (CCL-247) and the human breast adenocarcinoma line SK-BR-3 (HTB-30) were cultured in McCoy's 5a Medium (Invitrogen) containing 1.5 mM L-glutamine and 2.2 g/L sodium bicarbonate. The human colorectal adenocarcinoma line SW620 (CCL-227) was cultured in Leibovitz's L-15 Medium (Invitrogen) containing 2.05 mM L-glutamine.
as §1, §2

The next assay concerns CP70. Description: MTT proliferation assay, CP70. The class given is cell-based. The following applies: Ovarian, CP70, 120 h of exposure. Here is the method: as §1, §2
A further assay has as its system COLO205. Description: MTT proliferation assay, COLO205. The settings on record: CRC, COLO205, 120 h of exposure. The class given is cell-based, human. Here is the method: (§3) The human non-small cell lung adenocarcinoma lines NCI-H1299 (CRL-5803), NCI-H460 (HTB-177), NCI-H358 (CRL-5807), NCI-H838 (CRL-5844), the human colorectal adenocarcinoma lines COLO 205 (CCL-222), HCT-15 (CCL-225) and the human gastric cancer cell line NCI-N87 (CRL-5822) were cultured in RPMI 1640 medium containing 2 g/L sodium bicarbonate (Hyclone/Invitrogen) supplemented with 2 mM L-glutamine (Gibco) 1 mM sodium pyruvate (Sigma), 10 mM HEPES (Sigma) and 4500 mg/L glucose (Sigma). The human non-small cell lung adenocarcinoma line NCI-H2126 (CCL-256) was cultured in DMEM:F12(1:1) (Hyclone/Invitrogen) containing 2.5 mM L-glutamine 2.4 g/L sodium bicarbonate supplemented with 5% fetal bovine serum (FBS), an additional 2 mM L-glutamine, 15 mM HEPES, 0.005 mg/ml insulin (Sigma), 0.01 mg/ml transferrin (Sigma), 30 nM sodium selenite (Sigma), 10 nM hydrocortisone (Sigma) and 10 nM beta-estradiol (Sigma). The human colorectal adenocarcinoma line HT-29 (HTB-38) and the human gastric cancer cell lines OE-19 (#96071721) and MKN1 (JCRB0252) were cultured in RPMI 1640 media supplemented with 2 mM L-glutamine.
as §1, §2

A further assay concerns HuH-7. Description: MTT proliferation assay, HuH-7. The format is cell-based, human. The settings on record: Liver, HuH-7, 120 h of exposure. Here is the method: (§4) The human hepatocellular carcinoma lines HepG2 (HB-8065), SK-HEP-1 (HTB-52) and the normal human lung fibroblast line IMR-90 (CCL-186) were cultured in Minimum Essential Eagles Medium containing 2 mM L-glutamine, 2.2 g/L sodium bicarbonate, supplemented with 1 mM sodium pyruvate and 0.1 mM non-essential amino acids. The human hepatocellular carcinoma line JHH-1 (JCRB1062) was cultured in Williams E Medium (Invitrogen) containing 2.2 g/L sodium bicarbonate, supplemented with 2 mM L-glutamine. The hepatocellular carcinoma line HuH-7 (JCRB0403) was cultured in DMEM, supplemented with 2 mM L-glutamine.
as §1, §2

The subject of another assay is A2780. Description: MTT proliferation assay, A2780. The format is cell-based. The following applies: Ovarian, A2780, 120 h of exposure. Here is the method:
as §1, §2

The next assay relates to CALU3. The experiment in a line: MTT proliferation assay, CALU3. The class given is cell-based. The settings on record: NSCLC, CALU3, 120 h of exposure. Here is the method: as §1, §2
The test system of the next assay is 4405. The experiment in a line: MTT proliferation assay, 4405. The format is cell-based. The following applies: Melanoma, 4405, 120 h of exposure. Here is the method:
as §1, §2

A further assay relates to LNCaP. Description: MTT proliferation assay, LNCaP. The format is cell-based. The settings on record: Prostate, 120 h of exposure. Here is the method: as §1, §2
The test system of the next assay is NCI-H460. The experiment in a line: MTT proliferation assay, NCI-H460. The format is cell-based, human. The following applies: NSCLC, NCI-H460, 120 h of exposure. Here is the method: as §3, §1, §2
For the next assay, the system named is R-182. Description: MTT proliferation assay, R-182. The format is cell-based. The following applies: Ovarian, R-182, 120 h of exposure.
Source text: Tissue culture. The multidrug resistant primary epithelial ovarian cancer cell line R-182 TARA was a gift from Dr. Gil Mor (Yale University, New Haven, CT, USA). This cell line was derived by explant from ovarian tumors and cultured as previously described. All other cell lines were purchased from American Type Culture Collection (ATCC, Manassas, VA, USA) with the exception of MKN1, HuH-7, JHH-1, which were purchased from the Japanese Collection of Research Bioresources (JCRB, Osaka, Japan), and OE19 which was purchased from the European Collection of Cell Cultures (ECACC, Salisbury, UK).
as §1, §2

Another assay concerns SK-Hep-1. The experiment in a line: MTT proliferation assay, SK-Hep-1. The class given is cell-based, human. The settings on record: Liver, SK-Hep-1, 120 h of exposure. Here is the method: as §4, §1, §2
A further assay concerns MM200. The experiment in a line: MTT proliferation assay, MM200. The format is cell-based. The following applies: Melanoma, MM200, 120 h of exposure. Here is the method: as §1, §2
The subject of the next assay is HepG2. Description: MTT proliferation assay, HepG2. The class given is cell-based, human. The following applies: Liver, HepG2, 120 h of exposure. Here is the method:
as §4, §1, §2

For the next assay, the system named is MDA-MB-468. Description: MTT proliferation assay, MDA-MB-468. The class given is cell-based, human. The following applies: Breast, MDA-MB-468, 120 h of exposure. Here is the method:
The human gastric cancer cell line AGS (CRL-1739) was cultured in Hams F-12K (Kaighans modification) medium containing 2 mM L-glutamine, 2.5 g/L sodium bicarbonate and 2 mM sodium pyruvate. The human breast adenocarcinoma line MDA-MB-468 (HTB-132) was cultured in DMEM:F12 (1:1) medium containing 2.5 mM L-glutamine, 2.4 g/L sodium bicarbonate, supplemented with an additional 2 mM L-glutamine.
as §1, §2

The subject of the next assay is DU145. Description: MTT proliferation assay, DU145. The following applies: Prostate, DU145, 120 h of exposure. The format is cell-based. Here is the method: as §1, §2
Where [1] appears, read: Homo sapiens, MDA-MB-468, 120 h.

Experimental findings from patent publication US12329739B2, “Isoflavonoid compounds and methods for the treatment of cancer” (Aardvark Therapeutics, Inc., priority 2010, dated 2025) are described below.

Each structure is given as a SMILES string.

By IC50 is commonly meant the point on the concentration scale where inhibition reaches its midpoint. Low values mean greater potency in that assay, high ones weaker potency in that assay. As for `Cc1c(O)ccc2c1OC[C@@H](c1ccc(O)cc1)[C@H]2c1ccc(O)cc1` [d-5, d-cis-3-(4-hydroxyphenyl)-4-(4-hydroxyphenyl)-8-methylchroman-7-ol], the IC50 was no more than 150 nM in the assay with A2058 (Homo sapiens, A2058, 120 h); no more than 150 nM with PC3 (Homo sapiens, PC-3, 120 h); 150 to 500 nM in the assay on A549 (Homo sapiens); no more than 150 nM in the assay on SKBR-3; no more than 150 nM with CP70 (120 h); 510 to 1500 nM in the assay with COLO205 (Homo sapiens, COLO 205). The IC50 is no more than 150 nM with HuH-7 (Homo sapiens); no more than 150 nM in the assay on A2780 (Homo sapiens, A2780, 120 h); no more than 150 nM with CALU3 (Homo sapiens, Calu-3); no more than 150 nM with 4405; no more than 150 nM in the assay on LNCaP (Homo sapiens); no more than 150 nM with NCI-H460 (Homo sapiens). In addition, the IC50 is no more than 150 nM with R-182; no more than 150 nM in the assay with SK-Hep-1 (Homo sapiens, SK-HEP1); 150 to 500 nM in the assay with MM200; no more than 150 nM in the assay with HepG2 (Homo sapiens); no more than 150 nM in the assay on MDA-MB-468 (setting [1]); no more than 150 nM with DU145 (Homo sapiens, DU-145).

For `Cc1c(O)ccc2c1OCC(c1ccc(O)cc1)C2c1ccc(O)cc1` (stereo not shown) [Compound 5, 3-(4-hydroxyphenyl)-4-(4-hydroxyphenyl)-8-methylchroman-7-ol], the IC50 in the assay with A2058 (Homo sapiens, A2058, 120 h) was no more than 150 nM; with PC3 (Homo sapiens, PC-3, 120 h), 150 to 500 nM; in the assay with A549 (Homo sapiens) it was 150 to 500 nM; with SKBR-3, no more than 150 nM; in the assay with CP70 (120 h), no more than 150 nM; in the assay with COLO205 (Homo sapiens, COLO 205) it was 1600 to 10000 nM. Further, the IC50 was 150 to 500 nM in the assay with HuH-7 (Homo sapiens); 150 to 500 nM with A2780 (Homo sapiens, A2780, 120 h); no more than 150 nM in the assay with CALU3 (Homo sapiens, Calu-3); 150 to 500 nM in the assay on 4405; 150 to 500 nM with LNCaP (Homo sapiens); 150 to 500 nM in the assay with NCI-H460 (Homo sapiens). The IC50 was 150 to 500 nM in the assay on R-182; 150 to 500 nM in the assay on SK-Hep-1 (Homo sapiens, SK-HEP1); 150 to 500 nM with MM200; no more than 150 nM with HepG2 (Homo sapiens); 150 to 500 nM with MDA-MB-468 (setting [1]); 150 to 500 nM in the assay on DU145 (Homo sapiens, DU-145).

Turning to `Cc1cc([C@H]2c3ccc(O)c(C)c3OC[C@H]2c2ccc(O)cc2)ccc1O` (relative stereo) [d-6, d-cis-3-(4-hydroxyphenyl)-4-(4-hydroxy-3-methylphenyl)-8-methylchroman-7-ol], the IC50 in the assay with A2058 is no more than 150 nM; in the assay with PC3, 150 to 500 nM; in the assay with A549, 150 to 500 nM; in the assay with CP70, 150 to 500 nM; in the assay with COLO205 it was 1600 to 10000 nM; in the assay with HuH-7, 150 to 500 nM. Further, the IC50 with A2780 was 150 to 500 nM; in the assay on CALU3, 150 to 500 nM; in the assay on 4405, 150 to 500 nM; with LNCaP it was 150 to 500 nM; in the assay with NCI-H460, 150 to 500 nM; with R-182, no more than 150 nM. The IC50 in the assay on SK-Hep-1 is no more than 150 nM; in the assay on HepG2 it was no more than 150 nM; in the assay on MDA-MB-468, no more than 150 nM; in the assay on DU145 it was 150 to 500 nM.
